Experimental data as given in patent US20260345517A1, “DOSAGE REGIMENS FOR TREATING STARGARDT DISEASE” (Alkeus Pharmaceuticals, Inc., priority 2024, published 2026).
Entries after “also recorded” stand apart in the source; their conditions may differ.

What was measured:
Type in all cases: in vivo, human
[1] = TEASE-1: plasma gildeuretinol (replacement of plasma vitamin A); conditions: for percentage of gildeuretinol over total vitamin A (retinol + gildeuretinol): 8-week pharmacokinetic analysis, plasma
Description: The Tolerability and Effects of gildeuretinol acetate in Stargardt Disease (Clinical trial group 1 also known as TEASE-1) was a 24-month, multicenter, double-masked, placebo-controlled trial designed to evaluate the efficacy and safety of daily oral gildeuretinol acetate in slowing the growth of atrophic retinal lesions in Stargardt disease patients. The trial was conducted at multiple sites in the United States (NCT02402660).
Patients 12 years or older, clinically diagnosed with Stargardt disease, with at least one ABCA4 mutation, at least one eye presenting with well-demarcated areas of reduced fundus autofluorescence, and with any visual acuity, were eligible.
Patients were randomized to gildeuretinol acetate 14 mg capsules, gildeuretinol acetate 24 mg capsules, or placebo capsules, to be taken once daily for one year. After one year, 50% of randomly selected patients receiving placebo were crossed over in a 1:1 ratio to gildeuretinol acetate 14 mg capsules or gildeuretinol acetate 24 mg capsules for a second year.
Gildeuretinol acetate and placebo capsules were identical appearing capsules. Patients were advised to avoid vitamin A-containing supplements and liver-based products. Fruits and vegetables contain beta-carotene, not preformed vitamin A, and could be consumed without limitation. Trial visits occurred at 8 weeks and 6, 12, 18, and 24 months following screening and randomization.

[2] = test system: asymptomatic Stargardt disease patients; test: TEASE-3: best-corrected visual acuity (BCVA); conditions: 14 mg daily
Description: (§1) The tolerability and effects of gildeuretinol acetate in Stargardt Disease (Clinical trial group 3 also known as TEASE-3) study was an open-label, multicenter, case control study designed to evaluate the efficacy and safety of gildeuretinol acetate on the progression of Stargardt disease in asymptomatic individuals. The trial was conducted at multiple sites in the United States.
To assess the safety and efficacy of gildeuretinol acetate in preventing vision loss in asymptomatic individuals, gildeuretinol acetate 14 mg capsules was administered to individuals showing early signs of retinal damage while maintaining approximately 20/20 vision and no subjective loss of vision. […] Based on the above family history and clinical observations, the individuals were likely to develop retinal lesions, loss of photoreceptors, drops in retinal sensitivity, loss of visual acuity, indicating the onset of symptoms, i.e. a progression to the symptomatic phase, including vision loss within two years, mirroring the progression observed in their older siblings.
(§2) Patients received gildeuretinol acetate 14 mg capsules, to be taken orally once daily. Trial visits occurred every 6 months approximately following screening and treatment start visits.
(§3) Disease progression was monitored by best-corrected visual acuity (BCVA) reported in number of Early Treatment Diabetic Retinopathy Study (ETDRS) letters, fundus autofluorescence (FAF) imaging, loss of photoreceptors (as measured by the ellipsoid zone band loss) by optical coherence tomography (OCT) according to literature (1-3) and retinal sensitivity by microperimetry.
(§4) Measurements from the left and right eye for each patient were averaged for each visit to produce a single statistical unit for both eyes(4). For segmented linear regressions, knot times were selected so that three visits were included in the first segment.

[3] = test system: asymptomatic Stargardt disease patients; test: TEASE-3: fundus autofluorescence (FAF) imaging; conditions: 14 mg daily, two to four years, three patients
Description: as §1
(§5) To assess the safety and efficacy of gildeuretinol acetate in preventing vision loss in asymptomatic individuals, gildeuretinol acetate 14 mg capsules was administered to individuals showing early signs of retinal damage while maintaining approximately 20/20 vision and no subjective loss of vision. […]
as §3, with “microperimetry. […]” for “microperimetry.”

[4] = test system: asymptomatic Stargardt disease patients; test: TEASE-3: photoreceptor loss (ellipsoid zone band loss) by optical coherence tomography; conditions: 14 mg daily
Description: FIG. 5 is a graph showing retinal photoreceptor loss over time in three asymptomatic Stargardt disease patients taking gildeuretinol acetate 14 mg daily. Lines are piecewise linear regressions with a knot time of 6 months and show the mean area of retinal photoreceptor loss of both eyes. Each symbol represents the area of photoreceptor loss for calculated for one eye. To measure photoreceptor loss, the ellipsoid zone layer was evaluated on b-scans acquired on Heidelberg engineering optical coherence tomography (Heidelberg, Germany).
as §1, §2, §3, §4

[5] = test system: asymptomatic Stargardt disease patients; test: TEASE-3: retinal sensitivity by fundus-tracking microperimetry; conditions: 14 mg daily
Description: FIG. 4 is a graph showing mean retinal sensitivity (dB) over time in three asymptomatic Stargardt disease patients taking gildeuretinol acetate 14 mg daily. Lines show mean retinal sensitivity of both eyes. Lines are piecewise linear regressions with a knot time of 12 months. Each symbol represents a retinal sensitivity measurement for each eye. Patient 1 retinal sensitivity was measured with a Nidek MP-1 (Nidek, Gamagori, Japan). Patients 2 and 3 retinal sensitivity was measured with the CenterVue Macular Integrity Assessment or MAIA (CenterVue, Padova, Italy).
as §1, with “States. […]” for “States.”
as §3, with “microperimetry. […]” for “microperimetry.”

TEASE-3: safety = conditions: 14 mg daily, three patients
Description: as §2
Ocular safety was assessed by retinal imaging and ocular exam, which included evaluation of the anterior and posterior segments and the lens. Systemic safety was assessed by physical exam, comprehensive clinical labs (biochemistry, hematology, lipids), and 12-lead ECG.

[6] = test system: asymptomatic Stargardt disease patients; test: TEASE-3: disease progression; conditions: 14 mg daily
Description: as §1, §5
as §3, with “microperimetry. […]” for “microperimetry.”

For `CC(=O)OC/C=C(C)/C=C/C=C(C)/C=C/C1=C(C)CCCC1(C)C` [gildeuretinol acetate, C20-D3-retinol acetate], the “replacement of vitamin A with gildeuretinol” value ([1]; 14 mg and 24 mg once daily, about 24 months) was “over 80%”, the “replacement of plasma vitamin A sustained throughout the treatment period” value ([1]; 14 mg and 24 mg, throughout treatment) was “greater than 80%” and the “percentage of gildeuretinol over total vitamin A (retinol + gildeuretinol)” value ([1]; 14 mg) was 87%. The “percentage of gildeuretinol over total vitamin A (retinol + gildeuretinol)” value ([1]; 24 mg) was 92%, the “replacement of serum vitamin A with gildeuretinol” value ([1]; 14 to 24 mg daily, within a matter of weeks) was “more than 80%” and the “patients with over 80% of plasma vitamin A replaced” value ([1]; after six months) was 39 out of 40. The “total plasma vitamin A and retinoic acid (combined vitamin A and gildeuretinol-derived forms) versus placebo” value ([1]; gildeuretinol acetate vs placebo groups) was “the same”, the “BCVA of treated siblings” value ([2]; 2 to 4 years) was 88±4 ETDRS letters and the “average improvement of BCVA versus untreated siblings” value ([2]; age-matched untreated siblings) was 22±13 letters. For the same compound, the “average improvement of BCVA versus untreated siblings, lines of vision on the ETDRS eyechart” value ([2]; age-matched untreated siblings) was “four”, the “changes by FAF (flecks, autofluorescence, atrophy)” value [3] was “none of the three treated asymptomatic Stargardt disease patients exhibited changes by FAF; also recorded: absence of FAF changes in all three Stargardt disease patients” and the “average area of photoreceptor loss” value [4] was 0.36±0.32 mm^2. The “average area of photoreceptor loss, share of the foveal area” value [4] was 20%, the “photoreceptor loss, following years of treatment” value ([4]; after first six months) was “trended toward an improvement” and the photoreceptor loss rate ([4]; first six months, average for two patients) was “approximately 0.18 mm^2/year”. The “photoreceptor loss, third patient” value ([4]; full treatment period) was “no photoreceptors were lost”, the “rate of change of mean retinal sensitivity” value ([5]; first year of treatment) was −3.1±1.5 dB/year and the “rate of change of mean retinal sensitivity (improvement)” value ([5]; years following the first year) was “+0.93±0.7 dB/year”. The “adverse reactions linked to excessive or insufficient vitamin A” value (TEASE-3: safety) was “None of the three treated Stargardt disease asymptomatic patients exhibited adverse reactions”, the “disease progression / vision loss during treatment (in words)” value ([6]; 2 to 4 years, asymptomatic patients) was “arrested loss of vision and retinal pathology; also recorded: no observable disease progression; also recorded: effectively prevented vision loss and further retinal damage; also recorded: no vision loss or disease progression” and the “photoreceptor and retinal sensitivity outcomes with prolonged treatment” value ([6]; prolonged treatment) was “trended toward an improvement”.
